This is an account of results in patent US9084424B2, “N-benzyl heterocyclic carboxamides” (BAYER INTELLECTUAL PROPERTY GMBH, priority 2010, dated 2015).

In data set [1] the test system is Sphaerotheca fuliginea. Kind of data set: In vivo preventive test on Sphaerotheca fuliginea (cucumber). Conditions: preventive spray, 500 ppm of active ingredient, evaluated 7 days after inoculation. The method, then:
In Vivo Preventive Test on Sphaerotheca fuliginea (Cucumber)
(§1) Solvent: 49 parts by weight of N,N-dimethylformamide
(§2) Emulsifier: 1 part by weight of alkylarylpolyglycolether
(§3) To produce a suitable preparation of active compound, 1 part by weight of active compound is mixed with the stated amounts of solvent and emulsifier, and the concentrate is diluted with water to the desired concentration.
To test for preventive activity, young plants are sprayed with the preparation of active compound at the stated rate of application. After the spray coating has dried on, the plants are inoculated with an aqueous spore suspension of Sphaerotheca fuliginea. The plants are then placed in a greenhouse at approximately 23° C. and a relative atmospheric humidity of approximately 70%.
The test is evaluated 7 days after the inoculation. 0% means an efficacy which corresponds to that of the untreated control, while an efficacy of 100% means that no disease is observed.

Data set [2] deals with Alternaria solani. Kind of data set: In vivo preventive test on Alternaria solani (tomato). Conditions: preventive spray, 500 ppm of active ingredient, evaluated 7 days after inoculation. On the procedure: In Vivo Preventive Test on Alternaria Solani (Tomato)
as §1, §2, §3
To test for preventive activity, young plants are sprayed with the preparation of active compound at the stated rate of application. One day after this treatment, the plants are inoculated with an aqueous spore suspension of Alternaria solani. The plants remain for one day in an incubation cabinet at approximately 22° C. and a relative atmospheric humidity of 100%. Then the plants are placed in an incubation cabinet at approximately 20° C. and a relative atmospheric humidity of 96%.
The test is evaluated 7 days after the inoculation. 0% means an efficacy which corresponds to that of the untreated control while an efficacy of 100% means that no disease is observed.

Data set [3] can be described thus: log P by HPLC on reversed-phase column (EEC Directive 79/831 Annex V.A8). In kind it is physicochemical. Conditions: 0.1% aqueous formic acid and acetonitrile, linear gradient 10% to 90% acetonitrile. In a few lines:
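Calibration relied on straight-chain alkan-2-ones with 3 to 16 carbon atoms and known log P, with sample values read by linear interpolation of retention time between two adjacent standards. Separation at 40° C used 0.1% aqueous formic acid with acetonitrile rising linearly from 10% to 90%. UV spectra from 200 nm to 400 nm at chromatographic peak maxima gave lambda-max.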

Data set [4] relates to Pyrenophora teres. Kind of data set: In vivo preventive test on Pyrenophora teres (barley). Conditions: preventive spray, 500 ppm of active ingredient, evaluated 7-9 days after inoculation. The method, then:
In Vivo Preventive Test on Pyrenophora teres (Barley)
Solvent: 49 parts by weight of N,N-dimethylacetamid
Emulsifier: 1 part by weight of alkylaryl polyglycol ether
as §3
To test for preventive activity, young plants are sprayed with the preparation of active compound at the stated rate of application. One day after this treatment, the plants are inoculated with an aqueous spore suspension of Pyrenophora teres. The plants remain for 48 hours in an incubation cabinet at 22° C. and a relative atmospheric humidity of 100%. Then the plants are placed in a greenhouse at a temperature of approximately 20° C. and a relative atmospheric humidity of approximately 80%.
The test is evaluated 7-9 days after the inoculation. 0% means an efficacy which corresponds to that of the untreated control while an efficacy of 100% means that no disease is observed.

[5] abbreviates: HPLC, reversed-phase C 18, 40° C.
[6] abbreviates: HPLC on reversed-phase column (C 18), 40° C.

One may read the logP as the decadic logarithm of the partition coefficient of the neutral form, usually between octanol and water. A high value points to higher lipophilicity. As to `Cn1nc(C(F)F)c(C(=O)NC(c2ccccc2Cl)C(F)(F)F)c1Cl` (racemic) [Example 19], the Efficacy in data set [1] is 84%; in data set [2], 90%. In data set [3] (setting [5]), this compound showed a logP of 3.33.
On to `CC(NC(=O)c1c(C(F)F)nn(C)c1Cl)c1ccccc1Cl` (racemic) [Example 20], for which the Efficacy in data set [1] is given as 94%; in data set [4], 95%; in data set [2], 95%. Further, the logP in data set [3] (setting [5]) was determined as 2.92.
Turning to `CC(NC(=O)c1c(C(F)F)nn(C)c1F)c1ccccc1Cl` (racemic) [Example 24], the Efficacy in data set [1] came to 89%; in data set [4], 100%; in data set [2] it was 94%. For the same compound, in data set [3] (setting [5]), the logP was 2.75.
In the case of `CC(c1ccccc1Cl)N(C)C(=O)c1c(C(F)F)nn(C)c1F` (racemic) [Example 28], the Efficacy in data set [1] stood at 85%; in data set [4], 100%. Further, in data set [3] (setting [5]), the logP came out at 2.68.
As to `CC(NC(=O)c1c(C(F)F)nn(C)c1F)c1ccc(OCc2ccccc2)cc1` (racemic) [Example 162], the Efficacy in data set [1] turned out to be 88%; in data set [4], 100%; in data set [2] it was 100%. The same compound registered a logP in data set [3] (setting [6]) of 3.41.
Regarding `CC(NC(=O)c1c(C(F)F)nn(C)c1F)c1ccc(-c2ccccc2)cc1` (racemic) [Example 169], the Efficacy is listed as 89% in data set [1], 100% in data set [4] and 94% in data set [2]. In addition, the logP in data set [3] (setting [6]) was determined as 3.46.
On the same counts, the results for `CC(NC(=O)c1c(C(F)F)nn(C)c1F)c1ncc(C(F)(F)F)cc1Cl` (racemic) [Example 175] are 95%, 100%, 95% and 3.19.
On the same counts, the results for `CC(NC(=O)c1c(C(F)F)nn(C)c1Cl)c1ncc(C(F)(F)F)cc1Cl` (racemic) [Example 177] are 93%, 100%, 90% and 3.48.
As to `CCc1ccccc1CN(C(=O)c1c(C(F)F)nn(C)c1F)C1CCC1` [Example 12], the Efficacy turned out to be 95% in data set [1], 100% in data set [4] and 90% in data set [2]. Also, in data set [3] (setting [5]), the logP was determined as 3.63.
As for `CCc1ccccc1CN(CC)C(=O)c1c(C(F)F)nn(C)c1F` [Example 13], the Efficacy in data set [1] came out at 90%; in data set [4], 95%; in data set [2] it was 95%. Moreover, in data set [3] (setting [5]), the logP worked out at 3.13.
For the compound `CCc1ccccc1CN(C)C(=O)c1c(C(F)F)nn(C)c1F` [Example 15], the Efficacy in data set [1] came out at 83%; in data set [4], 95%; in data set [2], 95%. In data set [3] (setting [5]), this compound had a logP of 2.81.
Turning to `C#CCN(Cc1ccccc1CC)C(=O)c1c(C(F)F)nn(C)c1F` [Example 17], the Efficacy worked out at 94% in data set [1], 100% in data set [4] and 80% in data set [2]. This compound also returned a logP in data set [3] (setting [5]) of 3.10.
On to `Cn1nc(C(F)F)c(C(=O)NC(C)(C)c2ccccc2Cl)c1F` [Example 26], for which the Efficacy stood at 88% in data set [1] and 94% in data set [2]. In data set [3] (setting [5]), this compound returned a logP of 2.92.
Turning to `CC(NC(=O)c1c(C(F)F)nn(C)c1Cl)c1ccc(Cl)cc1Cl` (stereo not drawn) [Example 33], the Efficacy in data set [1] turned out to be 96%; in data set [4], 100%; in data set [2] it was 95%. In data set [3] (setting [5]), this compound showed a logP of 4.39.
On to `Cn1nc(C(F)F)c(C(=O)NC(C)(C)c2ccc(Cl)cc2Cl)c1Cl` [Example 35], for which the Efficacy in data set [1] worked out at 86%. This compound showed a logP in data set [3] (setting [5]) of 3.89.
Turning to `CC(NC(=O)c1c(C(F)F)nn(C)c1F)c1ccc(Cl)cc1Cl` (stereo not drawn) [Example 36], the Efficacy in data set [1] stood at 93%; in data set [4], 100%; in data set [2] it was 94%. Further, in data set [3] (setting [5]), the logP is given as 4.39.
The like results for `Cn1nc(C(F)F)c(C(=O)NC2(c3ccc(Cl)cc3Cl)CC2)c1F` [Example 38] were, in that order, 89%, 95%, 94% and 3.89.
For `Cn1nc(C(F)F)c(C(=O)NC(c2ccc(Cl)cc2Cl)C(F)(F)F)c1F` (stereo not drawn) [Example 40], the values for the Efficacy in data set [1], in data set [4] and in data set [2] were 83%, 95% and 94%, respectively. Moreover, the logP in data set [3] (setting [5]) was 4.19.
In the case of `Cn1nc(C(F)F)c(C(=O)NC(C)(C)c2cc(Cl)ccc2Cl)c1Cl` [Example 49], the Efficacy in data set [1] turned out to be 94%. Also, the logP in data set [3] (setting [5]) stood at 3.89.
On to `CC(NC(=O)c1c(C(F)F)nn(C)c1Cl)c1cc(Cl)ccc1Cl` (stereo not drawn) [Example 50], for which the values for the Efficacy in data set [1], in data set [4] and in data set [2] were 98%, 95% and 95%, respectively. Besides, in data set [3] (setting [5]), the logP came out at 4.39.
On to `Cn1nc(C(F)F)c(C(=O)NC(C)(C)c2cc(Cl)ccc2Cl)c1F` [Example 52], for which the Efficacy in data set [1] was determined as 80%. In data set [3] (setting [5]), the logP is 3.89.
For the compound `CC(NC(=O)c1c(C(F)F)nn(C)c1F)c1cc(Cl)ccc1Cl` (stereo not drawn) [Example 53], the Efficacy in data set [1] was 95%; in data set [4], 95%; in data set [2] it was 94%. The same compound registered a logP in data set [3] (setting [5]) of 4.39.
Take `CC(c1cc(Cl)ccc1Cl)N(C)C(=O)c1c(C(F)F)nn(C)c1Cl` (stereo not drawn) [Example 55]: the Efficacy came out at 83% in data set [1], 100% in data set [4] and 95% in data set [2]. This compound yielded a logP in data set [3] (setting [5]) of 3.33.
On the same counts, the results for `Cn1nc(C(F)F)c(C(=O)NCc2ccccc2C2CC2)c1F` [Example 65] are 85%, 94%, 90% and 2.78.
The like results for `CC(C)c1ccccc1CN(C(=O)c1c(C(F)F)nn(C)c1F)C1CCC1` [Example 70] were, in that order, 100%, 100%, 90% and 3.90.
As to `C=CCN(Cc1ccccc1C(C)C)C(=O)c1c(C(F)F)nn(C)c1F` [Example 71], the results for the Efficacy in data set [1], in data set [4] and in data set [2] were 91%, 95% and 95%, respectively. The compound further showed a logP in data set [3] (setting [5]) of 3.66.
For the compound `C#CCN(Cc1ccccc1C(C)C)C(=O)c1c(C(F)F)nn(C)c1F` [Example 73], the results for the Efficacy in data set [1], in data set [4] and in data set [2] were 98%, 100% and 95%, respectively. In addition, in data set [3] (setting [5]), the logP worked out at 3.37.
For the compound `CC(C)c1ccccc1CN(C(=S)c1c(C(F)F)nn(C)c1F)C1CCC1` [Example 75], the Efficacy in data set [1] and in data set [4] was 100% each time. This compound returned a logP in data set [3] (setting [5]) of 4.63.
As for `Cn1nc(C(F)F)c(C(=O)NC2(c3cccc(C(F)(F)F)c3)CCCC2)c1F` [Example 108], the Efficacy in data set [1] is 85%; in data set [4] it was 94%. In data set [3] (setting [6]), the logP came to 3.65.
On the same counts, the results for `Cn1nc(C(F)F)c(C(=O)NC2(c3ccc(Cl)c(C(F)(F)F)c3)CC2)c1F` [Example 125] are 100%, 95% and 3.27.
